Measurements from patent US8802597B2, “Herbicidal pyrimidines” (E I du Pont de Nemours and Company, priority 2003, dated 2014).
Read-outs that look alike come from different tables or passages of the source.

What was measured:
Type in all cases: in vivo
[1] = test system: common (oilseed) sunflower (Helianthus annuus); experiment: Test C pre/postemergence; details: Preemergence
How it was run: (§1)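 Applications: preemergence onto seeded soil and postemergence onto 1- to 4-leaf seedlings, compound carried in non-phytotoxic solvent plus surfactant. Kept in greenhouse 12 to 14 days. Scored visually relative to untreated controls, 0 (no effect) to 100 (complete control).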

corn (Zea mays) = experiment: Test C pre/postemergence; details: for Corn plant response rating (crop injury, 0 = no effect, 100 = complete kill) at 16 g/ha / Corn plant response rating (crop injury, 0 = no effect, 100 = complete kill) at 31 g/ha / Corn plant response rating (crop injury, 0 = no effect, 100 = complete kill) at 62 g/ha / Corn plant response rating (crop injury, 0 = no effect, 100 = complete kill) at 125 g/ha / Corn plant response rating (crop injury, 0 = no effect, 100 = complete kill) at 250 g/ha: Zea mays
How it was run: as §1

[2] = test system: chickweed (Stellaria media); experiment: Test C postemergence; details: for Plant response rating, Chickweed: scale 0 to 100; for pest or weed control at 250 g/ha: scale 0 to 100, read-out: Plant response rating, Chickweed
How it was run: as §1

[3] = Helianthus annuus, pre-emergence, 16 g ai/ha, scale 0 to 100, 0 no effect, 100 complete control, read-out: Plant response rating, Sunflower
[4] = Helianthus annuus, pre-emergence, 31 g ai/ha, scale 0 to 100, 0 no effect, 100 complete control, read-out: Plant response rating, Sunflower
[5] = Helianthus annuus, pre-emergence, 62 g ai/ha, scale 0 to 100, 0 no effect, 100 complete control, read-out: Plant response rating, Sunflower
[6] = Helianthus annuus, pre-emergence, 125 g ai/ha, scale 0 to 100, read-out: Plant response rating, Sunflower
[7] = post-emergence, Postemergence, 31 g ai/ha, read-out: Plant response rating (scale of 0 to 100), Corn
[8] = post-emergence, Postemergence, 62 g ai/ha, scale 0 to 100 (0 no effect, 100 complete control), read-out: Corn plant response rating
[9] = post-emergence, Postemergence, 125 g ai/ha, scale 0 to 100 (0 no effect, 100 complete control), read-out: Corn plant response rating
[10] = pre-emergence, Preemergence, 16 g ai/ha, scale 0 to 100, 0 no effect, 100 complete control, read-out: Plant response rating, Corn
[11] = pre-emergence, Preemergence, 31 g ai/ha, scale 0 to 100, 0 no effect, 100 complete control, read-out: Plant response rating, Corn
[12] = pre-emergence, Preemergence, 62 g ai/ha, scale 0 to 100, 0 no effect, 100 complete control, read-out: Plant response rating, Corn
[13] = pre-emergence, Preemergence, 125 g ai/ha, scale 0 to 100, read-out: Plant response rating, Corn
[14] = Stellaria media, post-emergence, 62 g ai/ha, scale 0 to 100 (0 no effect, 100 complete control), read-out: Chickweed plant response rating
[15] = Stellaria media, post-emergence, 125 g ai/ha, scale 0 to 100 (0 no effect, 100 complete control), read-out: Chickweed plant response rating
[16] = 62 g ai/ha, scale 0 to 100, 0 no effect, 100 complete control
[17] = Postemergence, 62 g ai/ha, scale 0 to 100 (0 no effect, 100 complete control)
[18] = Postemergence, 125 g ai/ha, scale 0 to 100 (0 no effect, 100 complete control)
[19] = Postemergence, 250 g ai/ha, scale 0 to 100
[20] = Postemergence, 500 g ai/ha, scale 0 to 100
[21] = Preemergence, 62 g ai/ha, scale 0 to 100, 0 no effect, 100 complete control
[22] = Preemergence, 125 g ai/ha, scale 0 to 100
[23] = Preemergence, 250 g ai/ha, scale 0 to 100
[24] = Preemergence, 500 g ai/ha, scale 0 to 100
[25] = 62 g ai/ha, scale 0 to 100 (0 no effect, 100 complete control)
[26] = 125 g ai/ha, scale 0 to 100 (0 no effect, 100 complete control)
[27] = post-emergence, Postemergence, 250 g ai/ha, scale 0 to 100
[28] = Stellaria media, post-emergence, 31 g ai/ha, read-out: Plant response rating (scale of 0 to 100), Chickweed
[29] = Stellaria media, post-emergence, 250 g ai/ha
[30] = 16 g ai/ha, scale 0 to 100, 0 no effect, 100 complete control
[31] = 31 g ai/ha, scale 0 to 100, 0 no effect, 100 complete control
[32] = Preemergence, 16 g ai/ha, scale 0 to 100, 0 no effect, 100 complete control
[33] = Preemergence, 31 g ai/ha, scale 0 to 100, 0 no effect, 100 complete control

| SMILES | pest or weed control at 31 g/ha [1, 4] [%] | pest or weed control at 62 g/ha [1, 5] [%] | Corn plant response rating (crop injury, 0 = no effect, 100 = complete kill) at 31 g/ha (corn (Zea mays); [7]) [%] | Corn plant response rating (crop injury, 0 = no effect, 100 = complete kill) at 125 g/ha (corn (Zea mays); [9]) [%] | Corn plant response rating (crop injury, 0 = no effect, 100 = complete kill) at 31 g/ha (corn (Zea mays); [11]) [%] | Plant response rating, Sunflower [1, 16] | Plant response rating, Sunflower ([1]; 125 g ai/ha, scale 0 to 100) | Plant response rating, Sunflower ([1]; 250 g ai/ha, scale 0 to 100) | Plant response rating, Sunflower ([1]; 500 g ai/ha, scale 0 to 100) | Corn plant response rating (corn (Zea mays); [17]) | Corn plant response rating (corn (Zea mays); [18]) | Plant response rating, Corn (corn (Zea mays); [19]) | Plant response rating, Corn (corn (Zea mays); [20]) | Plant response rating, Corn (corn (Zea mays); [21]) | Plant response rating, Corn (corn (Zea mays); [22]) | Plant response rating, Corn (corn (Zea mays); [23]) | Plant response rating, Corn (corn (Zea mays); [24]) | Chickweed plant response rating [2, 25] | Chickweed plant response rating [2, 26] | Plant response rating, Chickweed ([2]; 500 g ai/ha) | other results |
| --- | --- | --- | --- | --- | --- | --- | --- | --- | --- | --- | --- | --- | --- | --- | --- | --- | --- | --- | --- | --- | --- |
| COC(=O)c1nc(C2CC2)nc(N)c1F [Compound 25] | 60 | 75 | 0 | 0 | 0 | – | – | – | – | – | – | – | – | – | – | – | – | – | – | – | pest or weed control at 16 g/ha [1, 3]: 5%; pest or weed control at 125 g/ha [1, 6]: 90%; Corn plant response rating (crop injury, 0 = no effect, 100 = complete kill) at 16 g/ha (corn (Zea mays); post-emergence, Postemergence, 16 g ai/ha, read-out: Plant response rating (scale of 0 to 100), Corn): 0%; Corn plant response rating (crop injury, 0 = no effect, 100 = complete kill) at 62 g/ha (corn (Zea mays); [8]): 0%; Corn plant response rating (crop injury, 0 = no effect, 100 = complete kill) at 16 g/ha (corn (Zea mays); [10]): 0%; Corn plant response rating (crop injury, 0 = no effect, 100 = complete kill) at 62 g/ha (corn (Zea mays); [12]): 0%; Corn plant response rating (crop injury, 0 = no effect, 100 = complete kill) at 125 g/ha (corn (Zea mays); [13]): 0%; pest or weed control at 16 g/ha ([2]; Stellaria media, post-emergence, 16 g ai/ha, read-out: Plant response rating (scale of 0 to 100), Chickweed): 0%; pest or weed control at 62 g/ha [2, 14]: 40%; pest or weed control at 125 g/ha [2, 15]: 85% |
| Nc1nc(C2CC2)nc(C=NO)c1Br [Compound 27] | – | – | – | – | – | 0 | 20 | 90 | 95 | 0 | 0 | 0 | 0 | 0 | 10 | 15 | 25 | 0 | 0 | 0 | Plant response rating, Chickweed ([2]; 250 g ai/ha): 0 |
| COC(=O)c1nc(C2CC2C)nc(N)c1Br (stereo not drawn) [Compound 28] | – | – | – | – | – | 45 | 50 | 100 | 100 | 0 | 0 | 0 | 0 | 0 | 0 | 0 | 0 | 0 | 0 | 20 | Plant response rating, Chickweed ([2]; 250 g ai/ha): 15 |
| CCOC(=O)c1nc(C2CC2)nc(N)c1F [Compound 30] | 20 | 80 | 0 | 0 | 0 | – | – | – | – | – | – | – | – | – | – | – | – | – | – | – | pest or weed control at 125 g/ha [1, 6]: 90%; pest or weed control at 250 g/ha ([1]; Helianthus annuus, pre-emergence, 250 g ai/ha, scale 0 to 100, read-out: Plant response rating, Sunflower): 90%; Corn plant response rating (crop injury, 0 = no effect, 100 = complete kill) at 62 g/ha (corn (Zea mays); [8]): 0%; Corn plant response rating (crop injury, 0 = no effect, 100 = complete kill) at 250 g/ha (corn (Zea mays); [27]): 50%; Corn plant response rating (crop injury, 0 = no effect, 100 = complete kill) at 62 g/ha (corn (Zea mays); [12]): 0%; Corn plant response rating (crop injury, 0 = no effect, 100 = complete kill) at 125 g/ha (corn (Zea mays); [13]): 0%; Corn plant response rating (crop injury, 0 = no effect, 100 = complete kill) at 250 g/ha (corn (Zea mays); pre-emergence, Preemergence, 250 g ai/ha, scale 0 to 100): 0%; pest or weed control at 31 g/ha [2, 28]: 40%; pest or weed control at 62 g/ha [2, 14]: 50%; pest or weed control at 125 g/ha [2, 15]: 65%; pest or weed control at 250 g/ha [2, 29]: 85% |
| CCOC(=O)C(OC(C)=O)c1nc(C2CC2)nc(N)c1Br (stereo not drawn) [Compound 47] | – | – | – | – | – | 20 | 100 | – | – | 0 | 0 | – | – | 0 | 0 | – | – | 0 | 0 | – | Plant response rating, Sunflower [1, 30]: 0; Plant response rating, Sunflower [1, 31]: 0; Plant response rating (scale of 0 to 100), Corn (corn (Zea mays); Postemergence, 16 g ai/ha): 0; Plant response rating (scale of 0 to 100), Corn (corn (Zea mays); Postemergence, 31 g ai/ha): 0; Plant response rating, Corn (corn (Zea mays); [32]): 0; Plant response rating, Corn (corn (Zea mays); [33]): 0; Plant response rating (scale of 0 to 100), Chickweed ([2]; 16 g ai/ha): 0; Plant response rating (scale of 0 to 100), Chickweed ([2]; 31 g ai/ha): 0 |
| CNN=Cc1nc(C2CC2)nc(N)c1Br [Compound 49] | – | – | – | – | – | 15 | 75 | 100 | 100 | 0 | 0 | 20 | 25 | – | 15 | 15 | 65 | 0 | 0 | 45 | Plant response rating, Chickweed ([2]; 250 g ai/ha): 40 |
| CN(C)N=Cc1nc(C2CC2)nc(N)c1Br [Compound 50] | – | – | – | – | – | 15 | 55 | 95 | 100 | 0 | 0 | 60 | 65 | 10 | 10 | 20 | 45 | 0 | 0 | 20 | – |
| CCCCOC(=O)c1nc(C2CC2)nc(N)c1Cl [Compound 76] | – | – | – | – | – | 100 | – | – | – | – | 70 | – | – | 35 | 45 | – | – | – | 95 | – | Plant response rating, Sunflower [1, 30]: 50; Plant response rating, Sunflower [1, 31]: 85; Plant response rating (scale of 0 to 100), Corn (corn (Zea mays); Postemergence, 16 g ai/ha): 10; Plant response rating (scale of 0 to 100), Corn (corn (Zea mays); Postemergence, 31 g ai/ha): 35; Plant response rating (scale of 0 to 100), Corn (corn (Zea mays); Postemergence, 62 g ai/ha): 55; Plant response rating, Corn (corn (Zea mays); [32]): 0; Plant response rating, Corn (corn (Zea mays); [33]): 0; Plant response rating (scale of 0 to 100), Chickweed ([2]; 16 g ai/ha): 35; Plant response rating (scale of 0 to 100), Chickweed ([2]; 31 g ai/ha): 45; Plant response rating (scale of 0 to 100), Chickweed ([2]; 62 g ai/ha): 70 |
| Nc1nc(C2CC2)nc(C(=O)OCc2ccccc2)c1Cl [Compound 78, phenylmethyl 6-amino-5-chloro-2-cyclopropyl-4-pyrimidinecarboxylate] | 70 | 100 | 40 | 40 | 0 | – | – | – | – | – | – | – | – | – | – | – | – | – | – | – | pest or weed control at 16 g/ha [1, 3]: 50%; Corn plant response rating (crop injury, 0 = no effect, 100 = complete kill) at 62 g/ha (corn (Zea mays); post-emergence, Postemergence, 62 g ai/ha, read-out: Plant response rating (scale of 0 to 100), Corn): 40%; Corn plant response rating (crop injury, 0 = no effect, 100 = complete kill) at 250 g/ha (corn (Zea mays); [27]): 40%; Corn plant response rating (crop injury, 0 = no effect, 100 = complete kill) at 16 g/ha (corn (Zea mays); [10]): 0%; Corn plant response rating (crop injury, 0 = no effect, 100 = complete kill) at 62 g/ha (corn (Zea mays); [12]): 20%; Corn plant response rating (crop injury, 0 = no effect, 100 = complete kill) at 125 g/ha (corn (Zea mays); [13]): 40%; pest or weed control at 31 g/ha [2, 28]: 0%; pest or weed control at 62 g/ha ([2]; Stellaria media, post-emergence, 62 g ai/ha, read-out: Plant response rating (scale of 0 to 100), Chickweed): 0%; pest or weed control at 250 g/ha [2, 29]: 70% |
